Data: US12590062B2, “PD-1/PD-L1 inhibitors” (Gilead Sciences, Inc., priority 2017, dated 2026)
pEC50, pIC50: −log10 of the molar value.

Tests used:
PD-1/PD-L1 interaction = molecular target: T1, PD-1/PD-L1 interaction (Homo sapiens, UniProt Q9NZQ7); assay: PD-1/PD-L1 NFAT reporter co-culture assay; assay type: cell-based; details: Jurkat PD-1 NFAT-luciferase cells co-cultured with aAPC-PD-L1 CHO cells, 6 hrs at 37° C.; read-out: EC50 NFAT Luciferase
T1 construct: expressed in transfected cells; host or cells: CHO cells (aAPC-PD-L1) co-cultured with Jurkat cells overexpressing PD-1 and an NFAT-luciferase reporter
How it was run: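 Compounds are scored by restoration of NFAT-luciferase signal in PD-1-expressing Jurkat cells cultured 6 h at 37 °C on CHO cells presenting anti-CD3 and PD-L1; EC50 values derive from four-parameter curve fitting.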

PD-1/PD-L1 = PD-1/PD-L1 (Homo sapiens, UniProt Q9NZQ7); assay: PD-1/PD-L1 biochemical protein-protein interaction assay (ALPHA); assay type: binding; details: 0.3 nM His tagged PD-L1, 2.5 nM biotinylated Fc-PD-1, 60 minutes at 25° C., read-out: IC50 PD-L1-PD-1 Alpha IC50-mono PD-L1-fcP-D1
Experimental: Biological Activity PD-1/PD-L1 & CTLA/CD80 Biochemical Protein-Protein Interaction Assay
Compounds were tested in biochemical protein-protein interaction assays to determine if they can specifically block the interaction between the extracellular domains of PD-1/PD-L1 or CTLA/CD80. Binding of the protein pairs is measured using a bead based Amplified Luminescent Proximity Homogeneous Assay (ALPHA) platform. Binding of each protein pair results in proximity of the donor and acceptor beads which leads to an increase in ALPHA signal. Disruption of the protein-protein interaction with a test compound results in a decrease in ALPHA signal. Assays are performed in 25 mM Hepes (pH 7.4), 150 mM NaCl, 3.4 mM EDTA, 0.005% Tween 20, and 0.01% BSA. Final protein concentration in the assays were 0.3 nM (His tagged PD-L1), 2.5 nM (biotinylated Fc-PD-1), 1 nM (His tagged CTLA4) and 1 nM (biotinylated CD80). After an assay reaction time of 60 minutes at 25° C., binding was measured with addition of 20 μg/mL ALPHA assay acceptor beads (anti-His coated) and […] ALPHA assay donor beads (streptavidin coated). IC50 values were calculated from the fit of the dose-response curves to a four-parameter equation. Representative data are shown below in Table 1.

Chain of PD-1/PD-L1 (Q9NZQ7 19-238 limits assumed): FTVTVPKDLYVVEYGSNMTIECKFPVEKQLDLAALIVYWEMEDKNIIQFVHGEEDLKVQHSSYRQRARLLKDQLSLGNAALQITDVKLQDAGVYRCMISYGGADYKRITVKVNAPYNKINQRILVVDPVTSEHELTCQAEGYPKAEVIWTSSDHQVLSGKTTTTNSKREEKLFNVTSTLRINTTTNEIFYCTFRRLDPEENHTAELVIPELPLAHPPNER
T1 sequence (Q9NZQ7 19-290): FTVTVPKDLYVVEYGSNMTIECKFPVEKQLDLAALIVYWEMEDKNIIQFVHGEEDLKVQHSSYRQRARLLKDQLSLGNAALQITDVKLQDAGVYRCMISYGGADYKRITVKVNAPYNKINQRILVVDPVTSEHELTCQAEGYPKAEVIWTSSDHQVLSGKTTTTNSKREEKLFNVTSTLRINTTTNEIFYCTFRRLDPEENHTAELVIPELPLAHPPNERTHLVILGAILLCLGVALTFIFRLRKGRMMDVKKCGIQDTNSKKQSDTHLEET

Structure (SMILES) | pEC50 (PD-1/PD-L1 interaction) | pIC50 (PD-1/PD-L1)
COc1nc(OCc2cccc(-c3cccc(COc4ccc(CNCCNC(C)=O)c(OC)n4)c3C)c2C)ccc1CNCCNC(C)=O [Example 18, N,N′-(((((((2,2′-dimethyl-[1,1′-biphenyl]-3,3′-diyl)bis(methylene))bis(oxy))bis(2-methoxypyridine-6,3-diyl))bis(methylene))bis(azanediyl))bis(ethane-2,1-diyl))diacetamide] | ≤ 4.30 | 7.79
COc1nc(OCc2cccc(-c3cccc(COc4ccc(CNC[C@@H](O)CC(=O)O)c(OC)n4)c3C)c2C)ccc1CNC[C@@H](O)CC(=O)O [Example 19, (3S,3′S)-4,4′-((((((2,2′-dimethyl-[1,1′-biphenyl]-3,3′-diyl)bis(methylene))bis(oxy))bis(2-methoxypyridine-6,3-diyl))bis(methylene))bis(azanediyl))bis(3-hydroxybutanoic acid)] | 5.29 | 8.96
COc1nc(OCc2cccc(-c3cccc(COc4ccc(CNC[C@H](C)O)c(OC)n4)c3C)c2C)ccc1CNC[C@H](C)O [Example 23, (2S,2′S)-1,1′-((((((2,2′-dimethyl-[1,1′-biphenyl]-3,3′-diyl)bis(methylene))bis(oxy))bis(2-methoxypyridine-6,3-diyl))bis(methylene))bis(azanediyl))bis(propan-2-ol)] | ≤ 4.30 | 7.39
COc1nc(OCc2cccc(-c3cccc(COc4ccc(CNC[C@@H](C)O)c(OC)n4)c3C)c2C)ccc1CNC[C@@H](C)O [Example 24, (2R,2′R)-1,1′-((((((2,2′-dimethyl-[1,1′-biphenyl]-3,3′-diyl)bis(methylene))bis(oxy))bis(2-methoxypyridine-6,3-diyl))bis(methylene))bis(azanediyl))bis(propan-2-ol)] | 5.72 | 7.38
COc1nc(OCc2cccc(-c3cccc(COc4ccc(CN5C[C@@H](O)CC5=O)c(OC)n4)c3C)c2C)ccc1CNC[C@@H](O)CC(=O)O [Example 26, (S)-3-hydroxy-4-(((6-((3′-(((5-(((S)-4-hydroxy-2-oxopyrrolidin-1-yl)methyl)-6-methoxypyridin-2-yl)oxy)methyl)-2,2′-dimethyl-[1,1′-biphenyl]-3-y)methoxy)-2-methoxypyridin-3-yl)methyl)amino)butanoic acid] | 4.72 | 7.79
COc1cc(OCc2cccc(-c3cccc(COc4ccc(CNC[C@@H](O)CC(=O)O)c(OC)n4)c3C)c2C)ccc1CNC[C@@H](O)CC(=O)O [Example 27, (S)-4-(((6-((3′-((4-((((S)-3-carboxy-2-hydroxypropyl)amino)methyl)-3-methoxyphenoxy)methyl)-2,2′-dimethyl-[1,1′-biphenyl]-3-yl)methoxy)-2-methoxypyridin-3-yl)methyl)amino)-3-hydroxybutanoic acid] | 4.60 | 8.64
Cc1c(COc2cc(OCc3cncc(C#N)c3)c(CNC[C@@H](O)CC(=O)O)cc2Br)cccc1-c1cccc(COc2cc(OCc3cncc(C#N)c3)c(CN3C[C@@H](O)CC3=O)cc2Br)c1C [Example 38, (S)-4-((5-bromo-4-((3′-((2-bromo-5-((5-cyanopyridin-3-yl)methoxy)-4-(((S)-4-hydroxy-2-oxopyrrolidin-1-yl)methyl)phenoxy)methyl)-2,2′-dimethyl-[1,1′-biphenyl]-3-yl)methoxy)-2-((5-cyanopyridin-3-yl)methoxy)benzyl)amino)-3-hydroxybutanoic acid] | 5.57 | 8.55
Cc1c(COc2nc(OCc3cncc(S(C)(=O)=O)c3)c(CN[C@](C)(CO)C(=O)O)cc2Br)cccc1-c1cccc(COc2nc(OCc3cncc(S(C)(=O)=O)c3)c(CN[C@](C)(CO)C(=O)O)cc2Br)c1C [Example 40, (2R,2′R)-2,2′-((((((2,2′-dimethyl-[1,1′-biphenyl]-3,3′-diyl)bis(methylene))bis(oxy))bis(5-bromo-2-((5-(methylsulfonyl)pyridin-3-yl)methoxy)pyridine-6,3-diyl))bis(methylene))bis(azanediyl))bis(3-hydroxy-2-methylpropanoic acid)] | 6.75 | 10.00

Further lines, results first:

pEC50 (PD-1/PD-L1 interaction) | pIC50 (PD-1/PD-L1) | Structure (SMILES)
5.79 | 9.52 | Cc1c(COc2ccc(CNC[C@@H](O)CC(=O)O)cc2)cccc1-c1cccc(COc2cc(OCc3cncc(C#N)c3)c(CNC[C@@H](O)CC(=O)O)cc2Cl)c1C [Example 17, (S)-4-((4-((3′-((4-((((S)-3-carboxy-2-hydroxypropyl)amino)methyl)-2-chloro-5-((5-cyanopyridin-3-yl)methoxy)phenoxy)methyl)-2,2′-dimethyl-[1,1′-biphenyl]-3-yl)methoxy)benzyl)amino)-3-hydroxybutanoic acid]
5.86 | 7.77 | COc1nc(OCc2cccc(-c3cccc(COc4ccc(CNCCO)c(OC)n4)c3C)c2C)ccc1CNCCO [Example 21, 2,2′-((((((2,2′-dimethyl-[1,1′-biphenyl]-3,3′-diyl)bis(methylene))bis(oxy))bis(2-methoxypyridine-6,3-diyl))bis(methylene))bis(azanediyl))bis(ethan-1-ol)]
5.68 | 7.46 | Cc1c(COc2cc(OCc3cccnc3)c(CNCCO)cc2Cl)cccc1-c1cccc(COc2cc(OCc3cccnc3)c(CNCCO)cc2Cl)c1C [Example 22, 2,2′-((((((2,2′-dimethyl-[1,1′-biphenyl]-3,3′-diyl)bis(methylene))bis(oxy))bis(5-chloro-2-(pyridin-3-ylmethoxy)-4,1-phenylene))bis(methylene))bis(azanediyl))bis(ethan-1-ol)]
5.42 | 7.68 | N#Cc1cncc(COc2cc(OCc3cccc(-c4cccc(COc5cc(OCc6cncc(C#N)c6)c(CNCCO)cc5Cl)c4)c3)c(Cl)cc2CNCCO)c1 [Example 25, 5,5′-((((([1,1′-biphenyl]-3,3′-diylbis(methylene))bis(oxy))bis(4-chloro-6-(((2-hydroxyethyl)amino)methyl)-3,1-phenylene))bis(oxy))bis(methylene))dinicotinonitrile]
6.18 | 7.90 | Cc1c(COc2cc(OCCN3CCOCC3)c(CNCCO)cc2Cl)cccc1-c1cccc(COc2cc(OCCN3CCOCC3)c(CNCCO)cc2Cl)c1C [Example 28, 2,2′-((((((2,2′-dimethyl-[1,1′-biphenyl]-3,3′-diyl)bis(methylene))bis(oxy))bis(5-chloro-2-(2-morpholinoethoxy)-4,1-phenylene))bis(methylene))bis(azanediyl))bis(ethan-1-ol)]
6.49 | 9.40 | Cc1c(COc2cc(OCc3cncc(C#N)c3)c(CNC[C@@H](O)CC(=O)O)cc2Br)cccc1-c1cccc(COc2cc(OCc3cncc(C#N)c3)c(CNC[C@@H](O)CC(=O)O)cc2Br)c1C [Example 33, (3S,3′S)-4,4′-((((((2,2′-dimethyl-[1,1′-biphenyl]-3,3′-diyl)bis(methylene))bis(oxy))bis(5-bromo-2-((5-cyanopyridin-3-yl)methoxy)-4,1-phenylene))bis(methylene))bis(azanediyl))bis(3-hydroxybutanoic acid)]
5.97 | 7.67 | C=Cc1cc(CNCCO)c(OCc2cncc(C#N)c2)cc1OCc1cccc(-c2cccc(COc3cc(OCc4cncc(C#N)c4)c(CNCCO)cc3C=C)c2C)c1C [Example 36, 5,5′-((((((2,2′-dimethyl-[1,1′-biphenyl]-3,3′-diyl)bis(methylene))bis(oxy))bis(6-(((2-hydroxyethyl)amino)methyl)-4-vinyl-3,1-phenylene))bis(oxy))bis(methylene))dinicotinonitrile]
